Our source for the EC50 values is US8957061B2, “Azetidine derivatives as sphingosine 1-phosphate (S1P) receptor modulators” (Allergan, Inc., priority 2013, dated 2015).

For this assay, the target named is T1, human S1P1 receptor (Homo sapiens, UniProt P21453).
T1 construct: expressed in transfected cells; membranes used
The assay is described as follows: GTP γ35S binding assay for S1P1 activity. The class given is biochemical. The following applies: activity potency, S1P1 receptor from GTP γ35S; membranes of cells stably expressing the S1P1 receptor; test concentrations 0.08 to 5,000 nM. On the procedure: Compounds were synthesized and tested for S1P1 activity using the GTP γ^35S binding assay. These compounds may be assessed for their ability to activate or block activation of the human S1P1 receptor in cells stably expressing the S1P1 receptor. GTP γ^35S binding was measured in the medium containing (mM) HEPES 25, pH 7.4, MgCl2 10, NaCl 100, dithiothreitol 0.5, digitonin 0.003%, 0.2 nM GTP γ^35S, and 5 μg membrane protein in a volume of 150 μl. Test compounds were included in the concentration range from 0.08 to 5,000 nM unless indicated otherwise. Membranes were incubated with 100 μM 5′-adenylylimidodiphosphate for 30 min, and subsequently with 10 μM GDP for 10 min on ice. Drug solutions and membrane were mixed, and then reactions were initiated by adding GTP γ^35S and continued for 30 min at 25° C. Reaction mixtures were filtered over Whatman GF/B filters under vacuum, and washed three times with 3 mL of ice-cold buffer (HEPES 25, pH7.4, MgCl2 10 and NaCl 100). Filters were dried and mixed with scintillant, and counted for ^35S activity using a β-counter. Agonist-induced GTP γ^35S binding was obtained by subtracting that in the absence of agonist. Binding data were analyzed using a non-linear regression method.

The structures appear in SMILES notation.

T1 sequence (P21453 whole entry): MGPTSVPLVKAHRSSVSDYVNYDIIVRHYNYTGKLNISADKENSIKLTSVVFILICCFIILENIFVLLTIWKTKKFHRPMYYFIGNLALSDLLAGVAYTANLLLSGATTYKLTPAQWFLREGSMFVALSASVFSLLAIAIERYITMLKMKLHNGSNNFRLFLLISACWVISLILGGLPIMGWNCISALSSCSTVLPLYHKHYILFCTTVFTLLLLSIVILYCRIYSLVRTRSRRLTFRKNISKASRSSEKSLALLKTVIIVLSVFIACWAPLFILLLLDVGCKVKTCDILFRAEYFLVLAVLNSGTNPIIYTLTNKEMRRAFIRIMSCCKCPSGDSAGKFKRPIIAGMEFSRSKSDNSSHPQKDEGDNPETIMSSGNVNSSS

As to `Cc1ccc(CC(CCC[S+]([O-])c2ccc(CN3CC(C(=O)O)C3)cc2)c2cccc(Cl)c2)cc1C` (stereo not shown) [Compound 1, 1-(4-{[4-(3-Chlorophenyl)-5-(3,4-dimethylphenyl)pentyl]sulfinyl}benzyl)azetidine-3-carboxylic acid], the EC50 (usually the concentration needed to bring the measured effect to its halfway point) stood at 0.121 µM.
